Experiments:
[1] = Chelation study 2C: Fe^2+ chelation; settings: for % Remaining of FL (20 min) / % Remaining of FL (40 min) / % Remaining of FL (80 min): Fe^2+ ions 200 μM
[2] = for change in fluorescence decay pattern with and without ten-fold excess of CaCl2 (selectivity Cu^2+ over Ca^2+): comparison of studies 2A and 2B; for Cu^2+ chelation capability, in words: with CaCl2 (study 2A)
Experimental: Food Chem: 50(10); 2772-2777, 2002
The first chelation study (2A) evaluated the Cu^2+ chelation capability of the test and comparative chelators in the presence of excess Ca^2+. Here, a Fenton reaction was initiated with a mixture of Cu^2+, CaCl2 and hydrogen peroxide at alkaline condition, the mixture comprising [CuCl2]=200 μM, [H2O2]=0.055 μM, [CaCl2]2.3 mM, and [FL]=6.20×10^−8 M. The test compounds were evaluated at a concentration of 600 μM for each of Compounds 1D, 1E and 1F and Deferiprone (a 3 molar excess) and 200 μM for each of EDDS and EDTA.

[3] = Singlet oxygen quenching; type: biochemical
Source text: The first study evaluated the quenching ability of the aryl alkanones versus αTocopherol. The test methodology employed is the method of W. Mullen et al., J of Agriculture & Food Chemistry, 59(9):3754-3762, 2011).

[4] = Stability under singlet oxygen environment (HPLC); type: physicochemical
Experimental: A second study was performed to determine the stability of the aryl alkanones and α tocopherol under a singlet oxygen environment. In this study, 5 ml of 1 mg/ml solution of each test compound (in DMSO) was mixed with 5 ml of a solution (pH 5) containing 0.16 mg/ml lithium molybdate, 4 ml 0.01 M NaOH, and 5 ml of 0.015% H2O2. 500 μl from each mixture was taken every 2 mins and added to 1 ml of 1 mg/ml curcumin solution (in DMSO) to stop the reaction. The mixture was then injected into an HPLC to monitor product degradation.

[5] = Chelation study 2D: Fe^3+ chelation; settings: for % Remaining of FL (20 min) / % Remaining of FL (40 min) / % Remaining of FL (80 min): Fe^3+ ions; for Fe^3+ chelation capability, in words: study 2D

SMILES | % Remaining of FL (20 min) [1] [%] | % Remaining of FL (40 min) [1] [%] | % Remaining of FL (80 min) [1] [%] | change in fluorescence decay pattern with and without ten-fold excess of CaCl2 (selectivity Cu^2+ over Ca^2+) [2] | Cu^2+ chelation capability, in words [2] | Antioxidant Power against singlet oxygen [3] | Fe^3+ chelation capability, in words [5] | further results
COc1ccc(CC(C(C)=O)C(C)=O)cc1OC [Compound 1D, 3-(3,4-dimethoxybenzyl)-2,4-pentanedione] | 98.3 | 98.3 | 98.3 | very little change | almost completely chelated | 4,590 μmole Trolox equivalent/g | – | –
COc1ccc(CC(C(C)=O)C(C)=O)cc1 [Compound 1E, 3-(4-methoxybenzyl)-2,4-pentanedione] | 99.6 | 99.2 | 99.2 | very little change | almost completely chelated | 4,374 μmole Trolox equivalent/g | – | –
COc1cc(CC(C(C)=O)C(C)=O)cc(OC)c1OC [Compound 1F, 3-(3,4,5-trimethoxybenzyl)-2,4-pentanedione] | 98.6 | 98.1 | 97.7 | very little change | almost completely chelated | 6,359 μmole Trolox equivalent/g | – | Stability % Product remaining ([4]; 2 min, 0.5 mg/ml, pH 5): 92%; Stability % Product remaining ([4]; 4 min, 0.5 mg/ml, pH 5): 87%; Stability % Product remaining ([4]; 0.1 h, 0.5 mg/ml, pH 5): 85%; Stability % Product remaining ([4]; 8 min, 0.5 mg/ml, pH 5): 81%; Stability % Product remaining ([4]; 10 min, 0.5 mg/ml, pH 5): 80%
COc1cc(CC(C(C)=O)C(C)=O)ccc1O [Compound 1M, 3-(3-methoxy-4-hydroxybenzyl)-2,4-pentanedione] | – | – | – | – | – | 7,180 μmole Trolox equivalent/g | – | % Remaining of FL (20 min) [5]: 100%; % Remaining of FL (40 min) [5]: 100%; % Remaining of FL (80 min) [5]: 100%; Stability % Product remaining ([4]; 2 min, 0.5 mg/ml, pH 5): 95%; Stability % Product remaining ([4]; 4 min, 0.5 mg/ml, pH 5): 91%; Stability % Product remaining ([4]; 0.1 h, 0.5 mg/ml, pH 5): 88%; Stability % Product remaining ([4]; 8 min, 0.5 mg/ml, pH 5): 85%; Stability % Product remaining ([4]; 10 min, 0.5 mg/ml, pH 5): 82%
CCOC(=O)C(C)C(Cc1ccc(O)c(OC)c1)C(C)=O (stereo not shown) [Compound 2M, 3-(3-methoxy-4-hydroxybenzyl)-4-ethylester-2-pentanone] | – | – | – | – | – | – | – | % Remaining of FL (20 min) [5]: 99.8%; % Remaining of FL (40 min) [5]: 99.3%; % Remaining of FL (80 min) [5]: 98.5%
Cc1c(O)c(=O)ccn1C [Deferiprone, reference compound] | – | – | – | – | moderate chelation capability | – | performed poorly | Fe^2+ chelation capability, in words ([1]; study 2C): good chelation capability
CC(=O)N(O)CCCCCNC(=O)CCC(=O)N(O)CCCCCNC(=O)CCC(=O)N(O)CCCCCN [Desferal, reference compound] | – | – | – | – | – | – | moderate chelating capabilities | –
O=C(O)CC(NCCNC(CC(=O)O)C(=O)O)C(=O)O (stereo not shown) [EDDS, ethylenediamine-N,N′-disuccinic acid, reference compound] | – | – | – | – | poor chelating capabilities | – | – | chelation of copper, in words ([2]; general statement on applicant's studies in the background): not an effective chelating agent
O=C(O)CN(CCN(CC(=O)O)CC(=O)O)CC(=O)O [EDTA, ethylenediamine tetraacetic acid, reference compound] | – | – | – | – | poor chelating capabilities | – | moderate chelating capabilities | –
Cc1c(C)c2c(c(C)c1O)CC[C@@](C)(CCC[C@H](C)CCC[C@H](C)CCCC(C)C)O2 [α Tocopherol, reference compound] | – | – | – | – | – | 2,636 μmole Trolox equivalent/g | – | Stability % Product remaining ([4]; singlet oxygen environment (lithium molybdate/H2O2), 2 min): 73%; Stability % Product remaining ([4]; singlet oxygen environment (lithium molybdate/H2O2), 4 min): 58%; Stability % Product remaining ([4]; singlet oxygen environment (lithium molybdate/H2O2), 6 min): 47%; Stability % Product remaining ([4]; singlet oxygen environment (lithium molybdate/H2O2), 8 min): 39%; Stability % Product remaining ([4]; singlet oxygen environment (lithium molybdate/H2O2), 10 min): 35%

Source: patent US11077035B2, “Hair treatment compositions and methods” (SYTHEON LIMITED, priority 2017, dated 2021)
